From patent EP3319959B1, “HETERO-HALO INHIBITORS OF HISTONE DEACETYLASE” (Alkermes, Inc., priority 2015, dated 2017)

What follows are molecules tested on recombinant human HDACs (assay: HDAC enzymatic assay (LabChip capillary electrophoresis)). Details: 5 nM HDAC enzyme, 1 uM substrate, 5 hours pre-incubation, 17 hours reaction at 25°C; isoform not given.
Type: biochemical
Experimental: All recombinant human HDACs were purchased from BPS Bioscience. The substrate, FAM-TSRHK(AC)KL-CONH, was synthesized at NanoSyn. Final assay reactions contained 100 mM HEPES (pH 7.5), 50 mM KCl, 0.1% BSA, 0.01% Triton X-100, 1% DMSO, 1 uM substrate and 5 nM HDAC enzyme. Enzyme and compounds were pre-incubated at 25°C for 5 hours and reactions were initiated by addition of substrate. 10 uL reactions were incubated for 17 hours at 25°C and terminated by the addition of 40 uL of buffer containing 100 mM HEPES (pH 7.5), 0.1% BSA, 0.01% Triton X-100 and 0.05% SDS. Substrate and product peptides present in each sample were separated electrophoretically using the LabChip 3000 capillary electrophoresis instrument. Change in the relative fluorescence intensity of the substrate and product peaks reflects enzyme activity. Reaction progress was determined as the product to sum ratio (PSR): P/(S+P), where P is the peak height of the product peptide and S is the peak height of the substrate peptide. Reactions were performed in duplicate at 12 concentrations, (3X serial dilutions starting at 30 uM). IC50 values were calculated using a 4 Parameter Logistic Model.
Work on `Nc1ccc(-c2ccc(F)cc2)nc1NC(=O)N1Cc2cnc(C3CCOCC3)cc2C1` [Compound 240] yielded an IC50 of 0.1 to 0.5 µM. `Nc1ccc(-c2ccc(F)cc2)nc1NC(=O)N1Cc2cccc(N3CCCC3)c2C1` [Compound 249] gave an IC50 of over 5 µM. Work on `Nc1ccc(-c2ccc(F)cc2)nc1NC(=O)N1Cc2ccc(CN3CCC(C(F)(F)F)C3)cc2C1` (stereo not shown) [Compound 408] yielded an IC50 of 0.1 to 0.5 µM. `Nc1ccc(-c2ccc(F)cc2)nc1NC(=O)N1Cc2ccc(CN3CCC(F)(F)C3)cc2C1` [Compound 386] was tested, and the IC50 was 0.1 to 0.5 µM. Molecule `Nc1ccc(-c2cccnc2)nc1NC(=O)c1cn2c(n1)CNCC2` [Compound 219] has an IC50 of over 5 µM. `Nc1ccc(-c2ccc(F)cc2)nc1NC(=O)C1CC2CCC(C1)O2` (stereo not shown) [Compound 406] showed an IC50 of over 5 µM. Work on `Nc1ccc(-c2ccc(F)cc2)nc1NC(=O)C1CN(c2ccccn2)C1` [Compound 192] yielded an IC50 of over 5 µM. Work on `Nc1ccc(-c2ccccc2)nc1NC(=O)N1CC2CC(NC3COC3)CC2C1` (stereo not shown) [Compound 191] yielded an IC50 of 0.5 to 5 µM. `COc1ccc(-c2ccc(N)c(NC(=O)N3Cc4ccncc4C3)n2)cc1` [Compound 173] showed an IC50 of 0.5 to 5 µM. `COc1cccc(CN2CCCC3(CCN(C(=O)Nc4nn(-c5ccc(F)cc5)cc4N)C3)C2)c1` (stereo not shown) [Compound 124] gave an IC50 of over 5 µM. In the case of `CN1CC(CN2CC3CN(C(=O)Nc4nc(-c5ccc(F)cc5)ccc4N)CC3C2)C1` (stereo not shown) [Compound 256], the IC50 is reported as 0.5 to 5 µM. `Cc1cnc(C(=O)Nc2nc(-c3ccc(F)cc3)ccc2N)s1` [Compound 226] gave an IC50 of 0.1 to 0.5 µM. For `Nc1ccc(-c2ccco2)nc1NC(=O)N1Cc2ccncc2C1` [Compound 372], the IC50 was 0.5 to 5 µM. `Nc1ccc(-c2cccnc2)nc1NC(=O)c1nc2c(s1)CCN(CCF)C2` [Compound 164] showed an IC50 of 0.5 to 5 µM. In the case of `Nc1ccc(-c2cccnc2)nc1NC(=O)N1CC2(CCNCC2)C1` [Compound 220], the IC50 is reported as over 5 µM. For `COc1ccc(-c2ccc(N)c(NC(=O)N3Cc4cc(F)cnc4C3)n2)cc1` [Compound 187], the IC50 was 0.5 to 5 µM. `Nc1ccc(-c2ccccc2)nc1NC(=O)N1CC2CN(C3COC3)CC2C1` (stereo not shown) [Compound 199] was tested, and the IC50 was over 5 µM. With `Nc1ccc(-c2ccc(F)cc2)nc1NC(=O)[C@H]1[C@@H]2CN(C3CCOCC3)C[C@@H]21` (stereo in doubt) [Compound 264] the IC50 was over 5 µM. `CN1CCn2cc(C(=O)Nc3nc(-c4ccccc4)ccc3N)nc2C1` [Compound 206] showed an IC50 of 0.5 to 5 µM. For `COC1CCN(Cc2ccc3c(c2)CN(C(=O)Nc2nc(-c4ccc(F)cc4)ccc2N)C3)C1` (stereo not shown) [Compound 363], the IC50 was 0.1 to 0.5 µM. `CN1CC(Cn2ncc3c2CN(C(=O)Nc2nc(-c4ccc(F)cc4)ccc2N)C3)C1` [Compound 244] was tested, and the IC50 was 0.5 to 5 µM. In the case of `Nc1ccc(-c2cccnc2)nc1NC(=O)C1CCN(Cc2ccccc2F)CC1` [Compound 378], the IC50 is reported as over 5 µM. `Nc1ccc(-c2ccco2)nc1NC(=O)C1CN(Cc2ccccc2)C1` [Compound 198] was tested, and the IC50 was over 5 µM. `Nc1ccc(-c2ccc(F)cc2)nc1NC(=O)N1CC2CN(CCF)CC2C1` (stereo not shown) [Compound 183] was tested, and the IC50 was over 5 µM. With `Cn1cc(CN2CCC3(CC2)CCN(C(=O)Nc2nc(-c4cccnc4)ccc2N)C3)cn1` [Compound 215] the IC50 was over 5 µM. For `Cc1cc2c(cn1)CN(C(=O)Nc1nc(-c3ccc(F)cc3)ccc1N)C2` [Compound 151], the IC50 was 0.1 to 0.5 µM. For `CN1CC(N2CC3CN(C(=O)Nc4nc(-c5ccc(F)cc5)ccc4N)CC3C2)C1` (stereo not shown) [Compound 152], the IC50 was 0.5 to 5 µM. In the case of `Nc1ccc(-n2cccn2)nc1NC(=O)N1Cc2ccncc2C1` [Compound 369], the IC50 is reported as 0.5 to 5 µM. Molecule `Nc1ccc(-c2ccccc2)nc1NC(=O)CN1CCn2cncc2C1` [Compound 194] has an IC50 of over 5 µM. Molecule `CN(C1COC1)C1CC2CN(C(=O)Nc3nc(-c4ccc(F)cc4)ccc3N)CC2C1` (stereo not shown) [Compound 248] has an IC50 of 0.5 to 5 µM. `Nc1cn(-c2ccccc2)nc1NC(=O)N1CC2COCC2C1` (stereo not shown) [Compound 382] was tested, and the IC50 was over 5 µM. `CC(O)c1ccc2c(c1)CN(C(=O)Nc1nc(-c3ccc(F)cc3)ccc1N)C2` (stereo not shown) [Compound 394] was tested, and the IC50 was 0.1 to 0.5 µM. Molecule `Nc1ccc(-c2ccc(F)cc2)nc1NC(=O)N1CC2CC(N3CCC3)CC2C1` (stereo not shown) [Compound 143] has an IC50 of 0.5 to 5 µM. For `Nc1ccc(-c2ccco2)nc1NC(=O)N1CC2CN(C3COC3)CC2C1` (stereo not shown) [Compound 182], the IC50 was over 5 µM.
